Laboratory results published in patent US10240124B2, “Cell culture substrate comprising a laminin and a cadherin” (BioLamina AB, priority 2011, dated 2019).

Key:
human ES cells (HS181) = experiment: Cell adhesion assay, Crystal Violet (Example 1); assay type: cell-based
Experimental: Ninety-six-well tissue cell culture plates were coated overnight at 4° C. with sterile solutions of the ECM proteins mouse LN-111 (Invitrogen), human recombinant LN-511, and human recombinant LN-521, all at a concentration of 30 μg/ml (5 μg/cm^2). For control cells, BD Matrigel™ hESC qualified (BD Biosciences) was used according to the manufacturer's instructions.
The assay was performed as described (Extracellular Matrix Protocols, 2000). Briefly, 96-well plates were coated by extracellular matrix proteins as described above and blocked by O3 medium containing bovine serum albumin. The ES cells were plated at a cell density of 600 cell/mm^2 upon extracellular matrix-coated plates and were left to adhere for either 1 hour or 1 day at the cell incubator. Non-adherent cells were washed away, and adherent cells were fixed for 20 min by 5% glutaraldehyde, stained by 0.1% Crystal Violet.

ES cells = experiment: Embryoid body formation; assay type: cell-based, human; conditions: same three cultures as teratoma test
Experimental: ES cells from LN-521 coated cell culture dishes were exposed to TrypLE™Select for one minute at 37° C., 5% CO2, washes two times with a medium, broken into large pieces and cultured in suspension in low adhesion plates. The medium used for this was Knockout DMEM (GIBCO Invitrogen Corporation) supplemented with 2 mM L-glutamine, 20% fetal calf serum (GIBCO Invitrogen Corporation), 0.1 mM β-mercaptoethanol (GIBCO Invitrogen Corporation) and 1% non-essential amino acids (GIBCO Invitrogen Corporation). After 1-2 weeks in suspension, the embryoid bodies were transferred onto gelatin coated tissue cell culture 96-well plates (Sarstedt), cultured for 1-2 weeks, then fixed, stained with antibodies against markers of all three embryonic germ line layers (smooth muscle actin, MAP-2 and α-fetoprotein) and analyzed as described above for immunofluorescence.

Human ES cells = experiment: Real-time quantitative RT-PCR of Oct4 and Nanog (Example 1); assay type: cell-based; conditions: FIG. 11
Experimental: Total RNA was isolated and cDNA was synthesized as described in Rodin et al., Nature Biotechnol., vol. 28, pp. 611-615 (2010). Real-time quantitative RT-PCR Taqman assays were performed using the Applied Biosystems 7300 Real-Time PCR System. All reactions were done in quadruplicate with predeveloped gene expression assay mix (Applied Biosystems) containing primers and a probe for the mRNA of interest. Additional reactions for each experiment included predeveloped gene expression assay mix for GAPDH, used to normalize the RNA input. All data were analyzed with 7300 System SDS Software version 1.4.

Integrin α6β1 = Integrin α6β1 (Homo sapiens, UniProt P05556+P23229); conditions: cited from earlier work
[1] = system: human pluripotent cells (HS181, HS401, H1, ChiPSW, CutB1.2); experiment: Long-term self-renewal culture of hES and iPS cells on LN-521 (Example 2); assay type: cell-based; conditions: for passages of proliferation on LN-521: O3 medium
hES cells [2] = experiment: In vivo imaging and migration assay; assay type: cell-based, human
Experimental: 24-well plates were coated by extracellular matrix proteins and blocked by O3 medium containing bovine serum albumin. The ES cells were plated at cell density of 30,000-40,000 cells/cm^2 onto extracellular matrix-coated plates and left to adhere for half an hour in a cell incubator. After that, the plate was transferred into high content imaging system Operetta (PerkinElmer) equipped with environmental control unit, which allowed to keep 37° C., 5% CO2. For two movies that were made, the brightfield images were taken once in 15 minutes during 24 hours after plating using Harmony software (PerkinElmer), exported, and analyzed using ImageJ software (NIH, the US). For migration assay the images were taken every seven minutes during 18 hours after plating. Images acquired between the fifth and seventh hours after plating were analyzed using MTrackJ plug-in (University Medical Center, Rotterdam, The Netherlands). 100 attached cells on each coating were traced and mean distances from the current to the previous point of the track were calculated. Error bars show standard error of the mean s.e.m. (n=100).

hES cells [3] = experiment: Expression of pluripotency and differentiation markers (RT-PCR, FACS, immunofluorescence); assay type: cell-based, human; conditions: compared with cells on Matrigel passed as small clumps
Experimental: For immunofluorescence studies, ES cells were cultured and fixed in 8-well slide chambers (BD Biosciences) or 96-well plate wells by 4% paraformaldehyde, permeabilized by 0.1% Triton-X and blocked by 10% bovine fetal serum (GIBCO Invitrogen Corporation) in phosphate-saline buffer (PBS) containing 0.1% Tween-20 (Sigma-Aldrich, St. Louis, http://www.sigmaaldrich.com) for one hour. Incubation with primary antibody was performed for 1.5 hours at room temperature. Incubation with secondary antibody and 4,6-diamidino-2-phenylindole (DAPI, Molecular Probes) was performed for 40 minutes. Between incubations, the specimens were washed with 0.1% Tween-20 in PBS buffer three to five times. Specimens were preserved in a fluorescence mounting medium (Dako, Glostrup, Denmark, http://www.dako.com), and observed under a fluorescence microscope (Leica, Heerbrugg, Switzerland, http://www.leica.com).
Total RNA was isolated using Absolutely RNA Microprep Kit (Stratagene, La Jolla Calif., www.stratagene.com) according to the manufacturer's instructions. cDNA was synthesized using 0.2 μg of total RNA in 20 μl reaction mixture, containing oligo(dT)12-18 primers and Superscript II reverse transcriptase (GIBCO Invitrogen Corporation), according to the manufacturer's instructions. […] All data was analyzed with 7300 System SDS Software v 1.4. […]

Sequence of Integrin α6β1 (P23229 24-1130): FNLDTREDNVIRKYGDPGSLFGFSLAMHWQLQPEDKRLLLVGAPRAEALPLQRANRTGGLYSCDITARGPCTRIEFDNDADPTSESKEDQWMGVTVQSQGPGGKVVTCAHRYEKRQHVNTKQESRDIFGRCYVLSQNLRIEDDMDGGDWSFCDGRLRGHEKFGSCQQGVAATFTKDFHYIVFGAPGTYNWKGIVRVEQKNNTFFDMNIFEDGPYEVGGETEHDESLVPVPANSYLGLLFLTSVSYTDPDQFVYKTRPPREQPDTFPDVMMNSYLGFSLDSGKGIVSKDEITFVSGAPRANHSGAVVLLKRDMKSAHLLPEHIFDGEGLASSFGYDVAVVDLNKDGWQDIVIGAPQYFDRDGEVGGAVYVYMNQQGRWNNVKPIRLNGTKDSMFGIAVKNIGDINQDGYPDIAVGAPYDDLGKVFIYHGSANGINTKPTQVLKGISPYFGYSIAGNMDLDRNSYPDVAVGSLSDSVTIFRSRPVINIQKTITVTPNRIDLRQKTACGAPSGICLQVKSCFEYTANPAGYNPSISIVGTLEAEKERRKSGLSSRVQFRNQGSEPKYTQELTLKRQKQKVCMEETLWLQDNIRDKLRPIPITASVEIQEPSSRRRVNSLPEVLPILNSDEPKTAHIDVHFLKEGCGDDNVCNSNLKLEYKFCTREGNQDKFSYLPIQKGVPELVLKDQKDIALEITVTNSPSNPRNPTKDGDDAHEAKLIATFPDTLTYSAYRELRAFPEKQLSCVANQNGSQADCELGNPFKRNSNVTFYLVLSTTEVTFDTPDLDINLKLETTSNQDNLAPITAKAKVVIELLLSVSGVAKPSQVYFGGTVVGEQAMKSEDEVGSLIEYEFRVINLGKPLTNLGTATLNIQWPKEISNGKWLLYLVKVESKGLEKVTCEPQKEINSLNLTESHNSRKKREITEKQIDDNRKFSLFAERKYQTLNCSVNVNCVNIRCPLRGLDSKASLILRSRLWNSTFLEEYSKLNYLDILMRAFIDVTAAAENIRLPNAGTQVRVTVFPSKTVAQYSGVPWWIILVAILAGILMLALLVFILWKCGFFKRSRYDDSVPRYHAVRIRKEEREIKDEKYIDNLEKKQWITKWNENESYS
Sequence of Integrin α6β1 (P05556 21-798): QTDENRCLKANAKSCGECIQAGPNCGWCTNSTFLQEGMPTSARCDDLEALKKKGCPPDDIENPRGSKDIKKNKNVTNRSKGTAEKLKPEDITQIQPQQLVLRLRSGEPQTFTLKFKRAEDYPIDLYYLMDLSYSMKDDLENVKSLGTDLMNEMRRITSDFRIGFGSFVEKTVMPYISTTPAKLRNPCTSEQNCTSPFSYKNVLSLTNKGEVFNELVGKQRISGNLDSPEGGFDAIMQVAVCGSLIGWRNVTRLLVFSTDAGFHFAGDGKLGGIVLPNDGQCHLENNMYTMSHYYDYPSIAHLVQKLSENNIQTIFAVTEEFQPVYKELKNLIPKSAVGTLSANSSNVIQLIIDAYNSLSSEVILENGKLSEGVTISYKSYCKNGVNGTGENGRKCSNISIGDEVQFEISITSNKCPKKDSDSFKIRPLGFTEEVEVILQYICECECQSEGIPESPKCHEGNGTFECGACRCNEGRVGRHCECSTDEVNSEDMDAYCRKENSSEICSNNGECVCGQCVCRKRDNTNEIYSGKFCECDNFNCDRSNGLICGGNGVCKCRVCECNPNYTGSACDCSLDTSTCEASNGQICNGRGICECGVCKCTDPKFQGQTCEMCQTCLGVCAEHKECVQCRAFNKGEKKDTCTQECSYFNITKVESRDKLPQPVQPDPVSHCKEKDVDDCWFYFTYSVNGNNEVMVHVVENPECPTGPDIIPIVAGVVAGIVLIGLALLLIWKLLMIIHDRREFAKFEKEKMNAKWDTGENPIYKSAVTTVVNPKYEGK

## LN-521: protein formed by joining α5, β2 and γ1 laminin chains; human recombinant, produced in HEK293 cells
Human ES cells (HS181); FIG. 7
  adhesion at 1 day without additives compared with all dishes including the ROCK inhibitor: similar
Human ES cells (HS181); HS181 completely dissociated, O3 medium without any additives, FIG. 4
  cells remaining attached / surviving 24 hours after plating: survived
Human ES cells (HS181); O3 medium without any additives, without Y-27632, FIG. 6
  adhesion of human ES cells at 1 hour: roughly the same
Human ES cells (HS181); without additives, FIG. 7
  adhesion at 1 day relative to Matrigel without additives: 20 times
ES cells
  differentiation in vitro, embryoid bodies expressing markers of mesoderm, ectoderm and endoderm: retained the competence to form embryoid bodies
Human ES cells
  number of mRNA transcripts of Oct4 and Nanog compared with Matrigel: higher numbers of transcripts
Integrin α6β1
  binding affinity of integrin α6β1 compared with LN-111: higher than that for LN-111
[1]; ChiPSW iPS cells, mTeSR1
  passages cultured on LN-521: 3 passages
[1]; CutB1.2 iPS cells, mTeSR1
  passages cultured on LN-521: 5 passages
[1]; H1 cells, 6 months
  passages of proliferation on LN-521: ≥ 15 passages
[1]; H1 cells, TeSR2, xeno-free, 5 months
  passages cultured on LN-521: 12 passages
[1]; HS181 cells, 9 months
  passages of proliferation on LN-521: at least 24 passages
[1]; HS401 cells, 2 months
  passages of proliferation on LN-521: ≥ 5 passages
[1]; HS401 cells, TeSR2, xeno-free, 1.5 months
  passages cultured on LN-521: 4 passages
hES cells [2]; 24 hours imaging
  cell migration by imaging compared with Matrigel: much faster
hES cells [2]; between the fifth and seventh hours after plating, FIG. 14
  motility of hES cells compared with other coatings: higher than that of the cells on other coatings
hES cells [3]
  expression levels of pluripotency markers Oct4, Nanog and SSEA4: stable expression levels
